{"source": "patent US20220409692A1", "about": "“Systems Chemico-Pharmacology Drugs and Methods of Use” (The Medical College of Wisconsin, priority 2019, published 2022)", "key": {"[1]": {"test_system": "hyperoxic neonatal rat pups", "test": "Hyperoxia-induced BPD in neonatal rat pups: lung histology, cell counts and morphometrics", "type": "in vivo, Sprague-Dawley rat", "from_the_text": "Since the number of neonatal rat pups per pregnant dam limits the number of experimental conditions that can be compared, we modified our standard experimental design protocol. The first experiment was designed to determine if hyperoxia increased BPD, while the second was designed to determine if inhibiting MPO oxidant production reduced BPD. At least three sets of neonatal pups from three different dams were used for each experiment. Pups were fed ad libitum from nursing dams. Pups were weighed and inspected daily in room air for less than ten minutes. Nursing dams were switched daily to avoid the impact of nutritional status. Experience has taught us that severity of hyperoxia-induced BPD is litter dependent. To minimize litter differences, we determined the effects of hyperoxia vs. normoxia on BPD in neonatal pups by mixing pups from the litters and randomly reallocating pups with nursing dams.\nImmunohistochemistry and Immunocytochemistry: After cannulating the trachea with an Instech Solomon (20G) stainless steel feeding tube (Plymouth Meeting, Pa.), the lungs were inflated with 10% neutral buffered formalin at 25 cm-H2O (2.4 kPa) for 1 h. Lungs were removed after the trachea were securely tied with surgical silk to maintain the pressure, and perfusion fixed with an additional aliquot of 10% neutral buffered formalin for 24 h before paraffin embedding. Lung sections (5 μm) were mounted on SuperFrost plus-coated slides (Denville Scientific, Metuchen, N.J.). Slides were deparaffinized and sections stained with hematoxylin and eosin (H&E). Histology images were captured with a mounted digital camera using an Olympus IX 51 microscope and a 10× objective. Inflammatory cells, myeloid cells including neutrophils, monocytes, and macrophages, were stained with MPO antibody (1:200) overnight at 4° C. and HPR-conjugated anti-rabbit antibody (1:1000) at room temperature for one hour then visualized by diaminobenzidine to generate a dark-brown color. Blood vessels were stained with RECA-1 and visualized with horseradish-conjugated secondary antibody and diaminobenzidine. The average of three sections per pup, and five counts per section (15 counts/pup) was used for statistical analysis. Quantified data were obtained and entered into the record using predetermined codes by one of the coauthors who was not involved in taking the images.\nMorphometric Analysis: The mean linear intercept (MLI), or chord length, was used as a method to estimate the volume-to-surface ratio of acinar airspaces whereas radial alveolar count (RAC) and secondary septa were investigated to study the complexity of lung structure (21). Ten equally spaced horizontal lines were drawn on each picture, and the number of intercepts through the alveolar wall was counted. MLI was obtained by the number of times the traverses are placed on the lung times the length of the traverse then divided by the sum of all the intercepts. For the RAC, a line from the center of the respiratory tract perpendicular to the nearest connective tissue septum was drawn, and alveoli intercepting with the line were counted. For measurement of secondary septa, elastin was stained with resorcin fuchsin and Van Gieson's solution.\nSince the number of neonatal rat pups per pregnant dam limits the number of experimental conditions that can be compared, we modified our standard experimental protocol. The first study was designed to determine if hyperoxia increased BPD and caused a change in proteins of interest. Data from these studies can be found in on-line supplemental data. The second study was designed to determine if inhibiting MPO toxic oxidant production reduced BPD. At least three sets of neonatal pups from three different dams were used for each study. Pups were fed ad libitum from nursing dams. Pups were inspected daily starting on P1 and weighed starting on P3 in room air for less than ten minutes. Nursing dams were switched daily to avoid the impact of oxygen toxicity. […]"}, "[2]": {"test_system": "cultured endothelial cells", "settings": "added to culture media; cited from earlier work"}, "[3]": {"settings": "hyperoxic pups, KYC vs PBS, P10"}}, "note": "Peptide text beside a SMILES is read from it."}
{"smiles": "CC(=O)N[C@@H](CCCCN)C(=O)N[C@@H](Cc1ccc(O)cc1)C(=O)N[C@@H](CS)C(N)=O", "note": "[KYC, N-acetyl lysyltyrosylcysteine amide] (Ac-Lys-Tyr-Cys-NH2)", "values": [{"measurement": "RAC (radial alveolar count)", "setting": "[1]; KYC-treated HOX group, P10, PBS-treated HOX 4.2±0.6", "value": "6.3±0.4"}, {"measurement": "secondary septation", "setting": "[1]; KYC-treated HOX group, P10, PBS-treated HOX 5.0±1.3", "value": "7.8±1.2 /HPF"}, {"measurement": "capillary count", "setting": "[1]; KYC-treated HOX group, P10, PBS-treated HOX 5.2±1.0", "value": "9.7±3.0 /HPF"}, {"measurement": "MLI (mean linear intercept)", "setting": "[1]; KYC-treated HOX group, P10, PBS-treated HOX 95.9±9.1", "value": "74.1±4.7", "unit": "μm"}, {"measurement": "MPO-positive myeloid cell count", "setting": "[1]; hyperoxia (O2>90%) pups, KYC 5 mg/kg twice per day i.p. P2-P10, lungs at P10, PBS 2.0±0.7", "value": "0.8±0.7 /HPF"}, {"measurement": "reduction of myeloid cell recruitment (MPO+ myeloid cells)", "setting": "[1]; hyperoxic lungs, KYC vs PBS, P10", "value": "approximately 50%"}, {"measurement": "decrease of MLI", "setting": "[1]; [3]", "value": "approximately 22%"}, {"measurement": "increase of RAC", "setting": "[1]; [3]", "value": "approximately 35%"}, {"measurement": "increase of blood vessel counts", "setting": "[1]; [3]", "value": "~92", "unit": "%"}, {"measurement": "increase of secondary septa", "setting": "[1]; [3]", "value": "~55", "unit": "%"}, {"measurement": "8-OH-dG immunofluorescence staining (oxidative DNA damage)", "setting": "[1]; hyperoxic rat pups, KYC vs PBS", "value": "reduced 8-OH-dG in the nuclei of lung cells"}, {"measurement": "concentration with little to no effect on endothelial cell viability, apoptosis, necrosis, or mitochondrial function", "setting": "[2]", "value": "up to 4000 μM"}]}
